We go through twelve compounds from PubChem BioAssay AID190 (DTP/NCI, 2004).

SMILES strings stand for the structures. Values joined by “and” are separate entries in the source; they are usually repeats but may differ in a detail not shown here. Equal entries are not always repeated. Toxic doses and inconclusive results are not listed.

For the assay, the system named is AKR/Lw mice, AKR lymphoma ip, median survival T/C. Nature of the assay: NCI In Vivo Anticancer Drug Screen. Data for tumor model Lymphoma AKR (Transplanted) (intraperitoneal) in AKR/Lw mice. The settings on record: endpoint: median survival time, higher = longer survival. The protocol: The antitumor activity of compounds was measured in mice bearing transplantable tumors. Survival or tumor size were measured and the results are expressed as the measurement made in the treated group (T) divided by the measurement made in the vehicle treated control group (C). The tumor model used in this assay is Lymphoma AKR (Transplanted) (intraperitoneal) in AKR/Lw mice

Setting [1] is: dose: 100.0 mg/kg/injection, schedule: Q01DX001 (ip), vehicle: saline.
Where [2] appears, read: dose: 200.0 mg/kg/injection, schedule: Q01DX001 (ip), vehicle: saline.
Setting [3] is: dose: 100.0 mg/kg/injection, schedule: Q01DX001 (ip), vehicle: Klucel (hydroxypropylcellulose) (HPC).
Where [4] appears, read: dose: 100.0 mg/kg/injection, schedule: Q04DX003 (ip), vehicle: Klucel (hydroxypropylcellulose) (HPC).
[5] abbreviates: dose: 200.0 mg/kg/injection, schedule: Q01DX001 (ip), vehicle: Klucel (hydroxypropylcellulose) (HPC).
Setting [6] is: dose: 200.0 mg/kg/injection, schedule: Q04DX003 (ip), vehicle: Klucel (hydroxypropylcellulose) (HPC).
The mark [7] stands for this setting: dose: 400.0 mg/kg/injection, schedule: Q01DX001 (ip), vehicle: Klucel (hydroxypropylcellulose) (HPC).
The mark [8] stands for this setting: dose: 400.0 mg/kg/injection, schedule: Q04DX003 (ip), vehicle: Klucel (hydroxypropylcellulose) (HPC).
Setting [9] is: dose: 50.0 mg/kg/injection, schedule: Q01DX009 (ip), vehicle: saline.
Setting [10] is: dose: 25.0 mg/kg/injection, schedule: Q01DX001 (ip), vehicle: saline.
The mark [11] stands for this setting: dose: 25.0 mg/kg/injection, schedule: Q04DX003 (ip), vehicle: Klucel (hydroxypropylcellulose) (HPC).
Where [12] appears, read: dose: 50.0 mg/kg/injection, schedule: Q01DX001 (ip), vehicle: saline.
Where [13] appears, read: dose: 50.0 mg/kg/injection, schedule: Q04DX003 (ip), vehicle: Klucel (hydroxypropylcellulose) (HPC).

Regarding `c1ccc(C[N+](Cc2ccccc2)=C2CCCCC2)cc1`, the T/C reads like this: under setting [1], 111 % of control; under setting [2], 114 % of control.

With `COc1cc([C@@H]2c3cc4c(c(O)c3C[C@H]3COC(=O)[C@@H]32)OCO4)cc(OC)c1O`, the T/C by setting is: (dose: 0.12 mg/kg/injection, schedule: Q01DX009 (ip), vehicle: Klucel (hydroxypropylcellulose) (HPC)) 105 % of control; (dose: 0.25 mg/kg/injection, schedule: Q01DX009 (ip), vehicle: Klucel (hydroxypropylcellulose) (HPC)) 97 % of control.

`O=C(Cc1ccc2cc3c(cc2c1)OCO3)NCCc1ccc2c(c1)OCO2`: the T/C under setting [3] was 92 % of control; the T/C under setting [4] was 100 % of control; the T/C under setting [5] is 94 % of control; the T/C under setting [6] was 96 % of control; the T/C under setting [7] is 100 % of control; the T/C under setting [8] was 92 % of control.

Take `NC(=O)NO`: the T/C reads like this: (dose: 15.6 mg/kg/injection, schedule: Q06HX012 (ip), vehicle: saline) 93 % of control; (dose: 15.6 mg/kg/injection, schedule: Q06HX016 (ip), vehicle: saline) 96 % of control; (dose: 25.0 mg/kg/injection, schedule: Q06HX012 (ip), vehicle: saline) 100 % of control; (dose: 31.25 mg/kg/injection, schedule: Q06HX012 (ip), vehicle: saline) 96 % of control; under setting [9], 94 % of control; (dose: 50.0 mg/kg/injection, schedule: Q06HX012 (ip), vehicle: saline) 100 % of control. Moreover, the T/C was 92 % of control and 100 % of control (dose: 62.5 mg/kg/injection, schedule: Q06HX004 (ip), vehicle: saline); 93 % of control (dose: 62.5 mg/kg/injection, schedule: Q06HX008 (ip), vehicle: saline); 93 % of control (dose: 62.5 mg/kg/injection, schedule: Q06HX012 (ip), vehicle: saline); 100 % of control (dose: 62.5 mg/kg/injection, schedule: Q06HX016 (ip), vehicle: saline); 96 % of control (dose: 75.0 mg/kg/injection, schedule: Q06HX012 (ip), vehicle: saline); 92 % of control (dose: 100.0 mg/kg/injection, schedule: Q06HX008 (ip), vehicle: saline). In addition, the T/C (dose: 100.0 mg/kg/injection, schedule: Q06HX012 (ip), vehicle: saline) was 88 % of control.

In the case of `COc1ccccc1N1C(N)=NC(N)=NC1(C)C`, the T/C reads like this: (dose: 11.0 mg/kg/injection, schedule: Q01DX001 (ip), vehicle: saline) 109 % of control; (dose: 11.0 mg/kg/injection, schedule: Q04DX003 (ip), vehicle: saline) 91 % of control; (dose: 16.0 mg/kg/injection, schedule: Q01DX001 (ip), vehicle: saline) 88 % of control; under setting [10], 113 % of control; (dose: 25.0 mg/kg/injection, schedule: Q04DX003 (ip), vehicle: saline) 102 % of control; (dose: 37.5 mg/kg/injection, schedule: Q01DX001 (ip), vehicle: saline) 102 % of control. Also, the T/C (dose: 37.5 mg/kg/injection, schedule: Q04DX003 (ip), vehicle: saline) is 88 % of control and the T/C under setting [1] was 90 % of control.

Consider `CC(=O)NNC(=O)c1ccccn1`, for which the T/C is 92 % of control (dose: 3.1 mg/kg/injection, schedule: Q04DX003 (ip), vehicle: Klucel (hydroxypropylcellulose) (HPC)); 100 % of control (dose: 6.2 mg/kg/injection, schedule: Q01DX009 (ip), vehicle: Klucel (hydroxypropylcellulose) (HPC)); 88 % of control and 102 % of control (dose: 6.2 mg/kg/injection, schedule: Q04DX003 (ip), vehicle: Klucel (hydroxypropylcellulose) (HPC)); 112 % of control and 120 % of control (dose: 12.5 mg/kg/injection, schedule: Q01DX009 (ip), vehicle: Klucel (hydroxypropylcellulose) (HPC)); 89 % of control and 96 % of control (dose: 12.5 mg/kg/injection, schedule: Q04DX003 (ip), vehicle: Klucel (hydroxypropylcellulose) (HPC)); 97 % of control and 108 % of control under setting [10]. For the same compound, the T/C (dose: 25.0 mg/kg/injection, schedule: Q01DX009 (ip), vehicle: Klucel (hydroxypropylcellulose) (HPC)) was 109 % of control and 114 % of control; the T/C (dose: 25.0 mg/kg/injection, schedule: Q01DX009 (ip), vehicle: saline) was 87 % of control and 91 % of control; the T/C under setting [11] was 97 % of control and 105 % of control and 112 % of control; the T/C (dose: 31.25 mg/kg/injection, schedule: Q01DX001 (ip), vehicle: Klucel (hydroxypropylcellulose) (HPC)) is 94 % of control; the T/C (dose: 37.5 mg/kg/injection, schedule: Q01DX009 (ip), vehicle: saline) is 98 % of control; the T/C (dose: 50.0 mg/kg/injection, schedule: Q01DX001 (ip), vehicle: Klucel (hydroxypropylcellulose) (HPC)) was 92 % of control. For the same compound, the T/C under setting [12] is 95 % of control and 107 % of control; the T/C (dose: 50.0 mg/kg/injection, schedule: Q01DX009 (ip), vehicle: Klucel (hydroxypropylcellulose) (HPC)) was 120 % of control; the T/C under setting [9] is 101 % of control and 104 % of control; the T/C under setting [13] is 104 % of control and 109 % of control and 110 % of control; the T/C (dose: 62.5 mg/kg/injection, schedule: Q01DX001 (ip), vehicle: Klucel (hydroxypropylcellulose) (HPC)) is 94 % of control; the T/C (dose: 75.0 mg/kg/injection, schedule: Q01DX009 (ip), vehicle: saline) was 96 % of control. Besides, the T/C is, setting by setting: under setting [3], 114 % of control; under setting [1], 102 % of control and 115 % of control and 116 % of control; (dose: 100.0 mg/kg/injection, schedule: Q01DX009 (ip), vehicle: Klucel (hydroxypropylcellulose) (HPC)) 123 % of control; (dose: 100.0 mg/kg/injection, schedule: Q01DX009 (ip), vehicle: saline) 107 % of control; (dose: 100.0 mg/kg/injection, schedule: Q04DX003 (ip), vehicle: other) 117 % of control and 123 % of control; (dose: 100.0 mg/kg/injection, schedule: Q04DX003 (ip), vehicle: saline) 116 % of control. Moreover, the T/C is 94 % of control (dose: 150.0 mg/kg/injection, schedule: Q01DX001 (ip), vehicle: Klucel (hydroxypropylcellulose) (HPC)); 105 % of control (dose: 150.0 mg/kg/injection, schedule: Q01DX009 (ip), vehicle: saline); 95 % of control under setting [5]; 97 % of control and 107 % of control under setting [2]; 87 % of control and 94 % of control under setting [6]; 107 % of control (dose: 200.0 mg/kg/injection, schedule: Q04DX003 (ip), vehicle: other). Besides, the T/C is, setting by setting: (dose: 200.0 mg/kg/injection, schedule: Q04DX003 (ip), vehicle: saline) 116 % of control; (dose: 250.0 mg/kg/injection, schedule: Q01DX001 (ip), vehicle: Klucel (hydroxypropylcellulose) (HPC)) 107 % of control; under setting [7], 100 % of control.

On to `O=C(O)O`, for which the T/C under setting [1] was 86 % of control; the T/C under setting [2] is 117 % of control; the T/C (dose: 400.0 mg/kg/injection, schedule: Q01DX001 (ip), vehicle: saline) was 95 % of control.

For the compound `c1cc2cc3c(cc2c2c1CC1c4cc5c(cc4CCN1C2)OCO5)OCO3` (centres undefined), the T/C runs as follows: under setting [3], 102 % of control; under setting [4], 103 % of control; under setting [5], 97 % of control; under setting [6], 96 % of control; under setting [8], 92 % of control.

With `COC(=O)C1(C)CCC(c2ccc(OC)cc2)CC1=O` (centres undefined), the T/C was 113 % of control under setting [12]; 93 % of control under setting [13]; 105 % of control under setting [1]; 106 % of control under setting [4]; 105 % of control under setting [2]; 112 % of control under setting [6].

For `COC(=O)C1(C)CCC(c2ccc(OC)cc2)C(CC(=O)O)C1=O` (centres undefined), the T/C under setting [13] is 100 % of control; the T/C under setting [3] is 100 % of control; the T/C under setting [4] is 100 % of control; the T/C under setting [5] was 113 % of control; the T/C under setting [7] was 105 % of control.

For the compound `COc1cc([C@@H]2c3cc4c(cc3[C@@H](OC3OC5COC(C)OC5C(O)C3O)[C@H]3COC(=O)[C@H]23)OCO4)cc(OC)c1O` (some centres undefined), the T/C (dose: 5.0 mg/kg/injection, schedule: Q01DX009 (ip), vehicle: Klucel (hydroxypropylcellulose) (HPC)) was 321 % of control.

With `COc1ccc(CCNC(=S)NCCc2ccc(OC)c(OC)c2)cc1OC`, the T/C is, setting by setting: under setting [11], 94 % of control; under setting [13], 105 % of control; under setting [3], 88 % of control; under setting [4], 100 % of control; under setting [7], 86 % of control.
